This note sets out measurements from patent US7696190B2, “16Alpha-methyl or ethyl substituted estrogens” (N.V. Organon, priority 2000, dated 2010).

SMILES strings stand for the structures.

In this assay the test system is human estrogen receptor α (hERα) or β receptor (hERβ). The experiment in a line: in vitro transactivation bioassay (luciferase reporter) in recombinant CHO cells, estrogenic (agonist) activity compared with estradiol. The format is cell-based. The settings on record: percentage agonist activity for ER α divided by percentage agonist activity for ER β; CHO cells co-transfected with hERα or hERβ, rat oxytocin promoter and luciferase reporter. How it is done:
Compounds are tested for their estrogen receptor activity in a binding assay and in a transactivation assay. The estrogenic and antiestrogenic activity of compounds is determined in an in vitro bioassay with recombinant Chinese hamster ovary (CHO) cells stably co-transfected with the human estrogen receptor α (hERα) or β receptor (hERβ), the rat oxytocin promoter (RO) and the luciferase reporter gene (LUC). The estrogenic activity (potency ratio) of a test compound to stimulate the transactivation of the enzyme luciferase mediated via the estrogen receptors hERα or hERβ is compared with the standard estrogen estradiol. The antiestrogenic activity (potency ratio) of a test compound to inhibit the transactivation of the enzyme luciferase mediated via the estrogen receptors hERα or hERβ by the estrogen estradiol is compared with the standard ICI 164.384 (=(7α,17β)-N-butyl-3,17-dihydroxy-N-methylestra-1,3,5(10)-triene-7-undecanamide). A quantitative parameter for agonist selectivity is obtained by dividing the percentage agonist activity for ER α by the percentage agonist activity for ER β. Compound 11a has agonist selectivity for estrogen receptor α over estrogen receptor β of more than 86 times. Compound 26 has an agonist selectivity for ER α over ER β of 59 times. Compound 27 has agonist selectivity of 88.3 times.

In the case of `C#CC1(O)C(C)CC2C3CCC4=C(CCC(O)C4)C3C(CC=C)CC21C` (stereo not drawn) [Compound 27, (3α,11β,16α,17β)-16-methyl-11-(2-propenyl)-19-norpregn-5(10)-en-20-yne-3,17-diol], the “agonist selectivity for estrogen receptor α over estrogen receptor β” value is 88.3 times.
